{
  "source": "patent US20120128728A1",
  "about": "(NOVARTIS PHARMA AG, priority 2005, published 2012)",
  "key": {"[1]": {"experiment": "Dry powder toxicology study in rats with daily or weekly dosing (Example 15)", "assay_type": "in vivo", "conditions": "dosages up to 30.60 mg/kg/dose amphotericin B alone", "experimental": "The information obtained was used to select dose levels and/or dose regimens for subsequent toxicity studies.\nThe following investigations were performed: clinical observations, body weight, hematology, clinical chemistry, organ weight, histopathology, toxicokinetics, and bioanalytical chemistry."}, "in vivo [2]": {"experiment": "in vivo", "design": "species or system rabbits", "conditions": "rabbit", "experimental": "This Example describes results obtained in the plasma and lung tissue only.\nThe lot number of the formulation was N020042. The test powder was hand-filled into blister packs and contact sealed at 340° F. for 1.0 second, with an approximate fill weight of approximately 1.5 mg per blister pack.\n(§1) The test inhalation was administered in a single inhalation exposure.\nThe study included two groups each comprised of 48 rabbits. […] Four animals were sacrificed at each of the following time points after dosing: 0.16, 0.3, 1, 1.3, 2, 3, 4, 5, 14, 21, 28, and 45 days. Plasma and lung tissue were collected and analyzed for amphotericin B content using LC/MS-MS. Lower limits of quantitation (LLQ) of the assays were 5 ng/mL in plasma and 20 ng/g in lung tissue."}, "[3]": {"experiment": "Fourteen-day inhalation toxicity/toxicokinetic study in rats", "assay_type": "in vivo", "conditions": "both sexes, rat, lung tissue, inhaled, recovery period, read-out: lung tissue elimination half-life (t1/2) (converted)", "experimental": "Recovery animals were retained for a 14-day postdose recovery period. On study days 1 and 14, blood samples for toxicokinetic analysis were obtained from designated animals in the vehicle only and high-dose (25 mg/kg) groups at predose, 2 hr postdose, and 4 hr postdose. Toxicokinetic blood samples were also obtained during the 14-day recovery period on recovery Days 7 and 14 for males, and on recovery Day 14 only for females due to their lower body weight.\nAll study animals were subjected to a detailed necropsy on completion of the 14-day treatment period (Day 15) or completion of the 14-day recovery period (Day 29). During necropsy, lung tissue samples for toxicokinetic analysis were obtained from each animal."}, "[4]": {"experiment": "Toxicity of two dry powders in beagle dogs, once weekly inhalation (Example 17)", "assay_type": "in vivo", "experimental": "The animals were dosed using a close fitting face mask (fitted with a mouth tube) system for 30 min per day according to Table 15, above."}, "[5]": {"system": "Aspergillus fumigatus, NIH strain 4215", "experiment": "Efficacy of inhaled amphotericin B for prophylaxis in rabbits (Example 13)", "assay_type": "in vivo, New Zealand White SPF rabbits", "conditions": "for survival rate: day 14", "experimental": "The test powder was hand-filled into blister packs and contact sealed at 340° F. for 1.0 second, with an approximate fill weight of approximately 1.5 mg per blister pack.\nas §1\nAspergillus fumigatus, NIH strain 4215, was obtained from American Type Culture Collection (ATCC). Inoculum of A. fumigatus was prepared on Sabouraud dextrose flasks. Conidia were harvested with a solution of 0.025% Tween 20 in 0.9% sodium chloride, transferred to a conical tube, washed, and counted. The concentration was adjusted with the same solution to achieve 5×10^7 conidia in 300 μL. Animals in challenged groups were inoculated with the same volume. Inoculation was performed on anesthetized rabbits. Rabbits were intubated using an endotracheal tube and the inoculum was then administered intratracheally with a tuberculin syringe attached to a catheter introduced through the endotracheal tube.\nThe study included 6 groups each comprised of 10 rabbits. These groups are described in Table 6, below. All groups were immunosuppressed and treated with antibiotics to prevent bacterial infections. The immunosuppression and antibiotic cover regimen is detailed in Table 7, below."}, "Aspergillus fumigatus": {"system": "Aspergillus fumigatus", "experimental": "This study had three groups, with 10 rabbits each. Group 1 received the immunosuppressive regimen of intravenous cytarabine and methyl prednisolone and a sham saline inoculation. Group 2 received the immunosuppressive regimen and 5×10^7 conidia of A. fumigatus. […] The immunosuppressive agents were administered by intravenous injection. Antibiotics to prevent bacterial infections were administered by intravenous injection or in the drinking water.\nEvaluations performed in this study included mortality and morbidity, daily clinical observations, body weights, clinical pathology (hematology and clinical chemistry), gross necropsy, lung weight, enumeration of visible lung infarctions, fungal colony forming unit (CFU) measurements in BAL, blood, and lung tissue samples, and histopathological evaluation of lung tissue.\nThere were 3 study groups with 10 rabbits in each group in this experiment. Group 1 received the immunosuppressive regimen of intravenous cytarabine and methyl prednisolone and a sham saline inoculation. Group 2 received the immunosuppressive regimen and 5×10^7 conidia of A. fumigatus.\nNew Zealand White SPF rabbits that were dual catheterized with vascular access ports (VAPs) and weighing between 2.5 to 4.0 kg at study initiation were used. The rabbits were randomly assigned to treatment groups using a computerized body weight stratification procedure.\nIn this regard, powder from a blister pack was actuated from the inhaler into a chamber. The small animal ventilator pushed the dispersed powder into an endotracheal tube. The delivery efficiency to the animal was determined by measuring the gravimetric mass of the powder collected on a filter connected to the end of the endotracheal tube. The mass collected on the filter was normalized to the actual blister pack fill weight. The delivery efficiency was used to calculate the estimated dose (mg) for the in vivo experiments."}, "[6]": {"experiment": "Toxicity of two dry powders in rats with daily or weekly dosing (Example 16)", "assay_type": "in vivo", "experimental": "The following investigations were performed: clinical observations, body weight, respiratory measurements, hematology, clinical chemistry, histopathology, toxicokinetics, and bioanalytical chemistry."}, "fungus": {"system": "fungus", "experiment": "Minimum inhibitory concentration (MIC)", "experimental": "The MIC may be expressed as a particular concentration value or as a range of concentrations. […] As used herein, unless otherwise specified, the MIC value shall be taken to be the particular value when a particular MIC value is determined and shall be taken to be a midrange value when a range of MIC values is determined. MIC determinations may be made according to processes known in the art."}, "in vivo [7]": {"experiment": "in vivo", "design": "species or system dogs", "conditions": "both sexes, dog", "source_text": "On Study Days 1 and 14, blood samples for toxicokinetic analysis were obtained from designated animals in the vehicle and high-dose groups before exposure and 2, 4, 8, 12, and 24 hr after exposure, and daily during the 14-day recovery period. Main-study animals were euthanized and necropsied on day 15, recovery animals on day 29, during which the right anterior lobe of each animal was obtained for toxicokinetic analysis."}, "[8]": {"conditions": "rat, in vivo", "protocol": "(§2) The animals were dosed using a snout only exposure technique for about 60 min on 5 occasions at weekly intervals. Recovery animals were retained for an approximate one month recovery period.\n(§3) The following investigations were performed: clinical observations, body weight, food consumption, ophthalmology, hematology, clinical chemistry, urinalysis, histopathology, and toxicokinetics."}, "[9]": {"experiment": "One month inhalation toxicity study in rats", "protocol": "as §2, §3"}, "[10]": {"conditions": "Group 3: 1.5 mg/kg inhaled at day −12"}, "[11]": {"conditions": "Group 4: 0.15 mg/kg inhaled at day −1"}, "[12]": {"conditions": "Group 5: 0.5 mg/kg inhaled at day −1"}, "[13]": {"conditions": "Group 6: 1.5 mg/kg inhaled at Day −1"}, "[14]": {"conditions": "Group 3: 1.5 mg/kg inhaled 1 day before 5×10^7 conidia"}},
  "data": [
    {"compound": "C[C@@H]1[C@H](O)[C@@H](C)/C=C/C=C/C=C/C=C/C=C/C=C/C=C/[C@H](O[C@@H]2O[C@H](C)[C@@H](O)[C@H](N)[C@@H]2O)C[C@@H]2O[C@](O)(C[C@@H](O)C[C@@H](O)[C@H](O)CC[C@@H](O)C[C@@H](O)CC(=O)O[C@H]1C)C[C@H](O)[C@H]2C(=O)O", "note": "[amphotericin B]", "values": [
      {"measurement": "premature demise", "setting": "[1]", "result": 3, "unit": "animals"},
      {"measurement": "Tmax", "setting": "in vivo [2]; 0.25 mg/kg", "result": 32, "unit": "h"},
      {"measurement": "group mean lung Cmax", "setting": "in vivo [2]; 0.25 mg/kg", "result": 8.0, "unit": "µg/g"},
      {"measurement": "half-life", "setting": "in vivo [2]; 0.25 mg/kg", "result": 12.2, "unit": "days"},
      {"measurement": "Tmax", "setting": "in vivo [2]; 1.5 mg/kg", "result": 24, "unit": "h"},
      {"measurement": "group mean lung Cmax", "setting": "in vivo [2]; 1.5 mg/kg", "result": 46.6, "unit": "µg/g"},
      {"measurement": "half-life", "setting": "in vivo [2]; 1.5 mg/kg", "result": 10.6, "unit": "days"},
      {"measurement": "half-life", "setting": "[3]; 1.1 mg/kg dose level", "result": 22, "unit": "days"},
      {"measurement": "half-life", "setting": "[3]; 12.4 mg/kg dose level", "result": 34, "unit": "days"},
      {"measurement": "changes in body weight, hematology, clinical chemistry, food consumption, respiratory measurement", "setting": "[4]", "result": "no significant changes"},
      {"measurement": "clinical signs", "setting": "[4]; all dose groups including vehicle control", "result": "salivation"},
      {"measurement": "necropsy or histopathology findings attributable to administration", "setting": "[4]; doses up to 8.2 (3.2) mg/kg weekly", "result": "no necropsy or histopathology findings"},
      {"measurement": "median survival time", "setting": "[5]; [10]", "result": 10, "unit": "days"},
      {"measurement": "survival rate", "setting": "[5]; [10]", "result": 0, "unit": "%"},
      {"measurement": "median survival time", "setting": "[5]; [11]", "result": 9, "unit": "days"},
      {"measurement": "survival rate", "setting": "[5]; [11]", "result": 10, "unit": "%"},
      {"measurement": "median survival time", "setting": "[5]; [12]", "result": 10.5, "unit": "days"},
      {"measurement": "survival rate", "setting": "[5]; [12]", "result": 10, "unit": "%"},
      {"measurement": "median survival time", "setting": "[5]; [13]", "result": 10, "unit": "days"},
      {"measurement": "survival rate", "setting": "[5]; [13]", "result": 10, "unit": "%"},
      {"measurement": "Logrank pairwise comparison of Groups 3-6 with untreated Group 2", "setting": "[5]; all doses and treatment days", "result": "significant (P<0.001) protection"},
      {"measurement": "Kaplan-Meier survival compared with Group 2 (A. fumigatus only)", "setting": "Aspergillus fumigatus; Group 3", "result": "significant (p<0.05) increase"},
      {"measurement": "animals observed wheezing, gasping, or having rales", "setting": "Aspergillus fumigatus; Group 3", "result": "five"},
      {"measurement": "animals with more than 20 grossly visible lung infarctions", "setting": "Aspergillus fumigatus; Group 3, gross necropsy", "result": 20, "unit": "%"},
      {"measurement": "animals with visible lung infarction", "setting": "Aspergillus fumigatus; Group 3, gross necropsy", "result": 80, "unit": "%"},
      {"measurement": "animals with mycotic hyphae present in lung", "setting": "Aspergillus fumigatus; Group 3, histopathology", "result": 50, "unit": "%"},
      {"measurement": "average survival time", "setting": "Aspergillus fumigatus; [14]", "result": 13, "unit": "days"},
      {"measurement": "median day of death or sacrifice", "setting": "Aspergillus fumigatus; [14]", "result": 14, "unit": "days"},
      {"measurement": "animals having 1 or more tissues positive for fungus", "setting": "Aspergillus fumigatus; Group 3, BAL, blood, lung tissue culture, 9 animals", "result": 44, "unit": "%"},
      {"measurement": "effect against A. fumigatus induced mortality", "setting": "Aspergillus fumigatus; conclusion", "result": "prophylactic effect"},
      {"measurement": "animals surviving beyond nine days", "setting": "Aspergillus fumigatus; immunosuppressed, exposed, treated rabbits (FIG. 20)", "result": 100, "unit": "%"},
      {"measurement": "clinical signs", "setting": "[6]; dosages up to 14.80 mg/kg amphotericin B alone", "result": "clinical signs indicative of respiratory distress"},
      {"measurement": "necropsy findings", "setting": "[6]; rats, both powders", "result": "no notable necropsy findings"},
      {"measurement": "midrange MIC value", "setting": "fungus", "result": "about 2.25 μg/g"},
      {"measurement": "half-life", "setting": "in vivo [7]", "result": 18.8, "unit": "days"},
      {"measurement": "effects on body weight, food consumption, ophthalmology, hematology, clinical chemistry, or organ weights", "setting": "[8]", "result": "no adverse effects"},
      {"measurement": "mortalities during the study", "setting": "[9]; 198 M and 198 F rats, one death pretrial", "result": 181},
      {"measurement": "animals with pneumonia/pleuritis, collapse or alveolar inflammation", "setting": "[9]; Groups 3 to 6, Main Study", "result": "17/110"},
      {"measurement": "time to maximum plasma concentration after cessation of dosing", "setting": "[9]; rats, toxicokinetics", "result": "≤ 4", "unit": "h"}
    ]}
  ]
}
